In EP3929184A1, “((((3-HALOPHENYL)(PHENYL)METHYL)SULFINYL)METHYL)THIOPHENE COMPOUNDS AND DIASTEREOMERIC FORMS THEREOF FOR USE IN IMPROVING COGNITIVE FUNCTIONS” (Red Bull GmbH, priority 2020, dated 2021):

Columns and labels:
[1] = test system: presynaptic cells; assay: Dopamine release from presynaptic cells; type: cell-based; conditions: different from compounds such as Amphetamines
[2] = test system: young rats; assay: Reversal of scopolamine effect in young rats; type: in vivo

[O-][S+](Cc1cccs1)C(c1ccccc1)c1cccc(Br)c1 [2-2, 2-(((((R),(R)-3-bromophenyl)(phenyl)methyl)sulfinyl)methyl)thiophene]
release of dopamin from presynaptic cells [1]: does not induce release
effect of compounds such as scopolamine [2]: reversed
